Results reported in US20070208088A1, “PQS: A NEW HYDROTROPE FOR SOLUBILIZING LIPOPHILIC COMPOUNDS IN WATER” (ZYMES, LLC, priority 2006, published 2007).

Assay: Micelle formation and micelle particle size in aqueous solution
Format: physicochemical
Conditions: for particle size of the micelles: micelles formed in aqueous solution
Text: In one example, the compounds of the invention form micelles when added to an aqueous solution. The particle sizes of these micelles can be determined using art recognized methods, such as light scattering techniques. In one embodiment, the particle size is between about 300 nm and about 1 nm, preferably between about 200 nm and about 1 nm, more preferably between about 100 nm and about 1 nm. Smaller particle sizes are generally preferred.
Smaller micelle size is generally preferred.

micelle formation in aqueous solution	particle size of the micelles	Substance
forms micelles	about 120 nm	polyoxyethanyl-ubiquinol-sebacate [PQS-600]
forms micelles	about 80 nm	polyoxyethanyl-ubiquinol-sebacate [PQS-1000]
